# From article PMC5564600 (Oncotarget, 2017)
# Tests used:
# Assay in all cases: biochemical
# Format in all cases: binding
# panel of 442 kinases [1] = target: T1, panel of 442 kinases (Homo sapiens, UniProt P42679); settings: CTK; for remaining activity at 1 µM: read-out: % of control at 1 µM
# T1 construct: purchased Ambit Biosciences (scanMAXX KINOMEscan)
# T1 sequence (P42679 1-507): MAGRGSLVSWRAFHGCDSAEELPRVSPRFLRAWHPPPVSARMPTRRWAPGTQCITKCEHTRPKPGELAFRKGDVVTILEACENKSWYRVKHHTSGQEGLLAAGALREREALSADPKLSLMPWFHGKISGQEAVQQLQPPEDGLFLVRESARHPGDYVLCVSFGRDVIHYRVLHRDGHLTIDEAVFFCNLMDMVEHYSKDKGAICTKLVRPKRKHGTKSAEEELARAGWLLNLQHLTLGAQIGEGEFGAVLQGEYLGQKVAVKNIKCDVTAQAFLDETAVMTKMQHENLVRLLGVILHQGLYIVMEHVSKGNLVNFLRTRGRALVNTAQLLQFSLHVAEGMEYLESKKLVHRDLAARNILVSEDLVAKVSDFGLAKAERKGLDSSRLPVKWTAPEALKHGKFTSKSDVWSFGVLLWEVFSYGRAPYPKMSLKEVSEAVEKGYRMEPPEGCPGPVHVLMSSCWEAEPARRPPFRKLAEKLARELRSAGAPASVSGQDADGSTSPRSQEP
# panel of 442 kinases [2] = target: T2, panel of 442 kinases (Homo sapiens, UniProt P45983); settings: kinase JNK1; for remaining activity at 1 µM: read-out: % of control at 1 µM
# T2 construct: purchased Ambit Biosciences (scanMAXX KINOMEscan)
# panel of 442 kinases [3] = target: T3, panel of 442 kinases (Homo sapiens, UniProt P51956); settings: kinase NEK3; for remaining activity at 1 µM: read-out: % of control at 1 µM
# T3 construct: purchased Ambit Biosciences (scanMAXX KINOMEscan)
# T3 sequence (P51956 1-506): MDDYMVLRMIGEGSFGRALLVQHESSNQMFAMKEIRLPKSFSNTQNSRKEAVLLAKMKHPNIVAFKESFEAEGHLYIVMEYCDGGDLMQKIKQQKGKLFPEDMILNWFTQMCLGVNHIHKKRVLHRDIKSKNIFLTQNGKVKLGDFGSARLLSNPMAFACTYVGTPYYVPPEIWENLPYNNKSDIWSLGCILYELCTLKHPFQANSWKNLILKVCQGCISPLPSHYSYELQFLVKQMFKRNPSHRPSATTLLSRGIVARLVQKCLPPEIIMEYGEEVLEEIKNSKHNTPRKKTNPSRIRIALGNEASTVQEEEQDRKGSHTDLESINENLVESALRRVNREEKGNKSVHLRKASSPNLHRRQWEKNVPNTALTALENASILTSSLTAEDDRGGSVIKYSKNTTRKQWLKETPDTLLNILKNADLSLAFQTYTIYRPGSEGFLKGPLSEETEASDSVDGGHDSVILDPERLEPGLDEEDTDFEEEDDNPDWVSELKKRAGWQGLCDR
# panel of 442 kinases [4] = target: T4, panel of 442 kinases (Homo sapiens, UniProt Q13554); settings: CAMK2B; for remaining activity at 1 µM: read-out: % of control at 1 µM
# T4 construct: purchased Ambit Biosciences (scanMAXX KINOMEscan)
# panel of 442 kinases [5] = target: T5, panel of 442 kinases (Homo sapiens, UniProt Q5S007); settings: kinase LRRK2; for remaining activity at 1 µM: read-out: % of control at 1 µM
# T5 construct: purchased Ambit Biosciences (scanMAXX KINOMEscan)
# panel of 442 kinases [6] = target: T6, panel of 442 kinases (Homo sapiens, UniProt Q8NE63); settings: kinase HIPK4; for remaining activity at 1 µM: read-out: % of control at 1 µM
# T6 construct: purchased Ambit Biosciences (scanMAXX KINOMEscan)
# T6 sequence (Q8NE63 1-616): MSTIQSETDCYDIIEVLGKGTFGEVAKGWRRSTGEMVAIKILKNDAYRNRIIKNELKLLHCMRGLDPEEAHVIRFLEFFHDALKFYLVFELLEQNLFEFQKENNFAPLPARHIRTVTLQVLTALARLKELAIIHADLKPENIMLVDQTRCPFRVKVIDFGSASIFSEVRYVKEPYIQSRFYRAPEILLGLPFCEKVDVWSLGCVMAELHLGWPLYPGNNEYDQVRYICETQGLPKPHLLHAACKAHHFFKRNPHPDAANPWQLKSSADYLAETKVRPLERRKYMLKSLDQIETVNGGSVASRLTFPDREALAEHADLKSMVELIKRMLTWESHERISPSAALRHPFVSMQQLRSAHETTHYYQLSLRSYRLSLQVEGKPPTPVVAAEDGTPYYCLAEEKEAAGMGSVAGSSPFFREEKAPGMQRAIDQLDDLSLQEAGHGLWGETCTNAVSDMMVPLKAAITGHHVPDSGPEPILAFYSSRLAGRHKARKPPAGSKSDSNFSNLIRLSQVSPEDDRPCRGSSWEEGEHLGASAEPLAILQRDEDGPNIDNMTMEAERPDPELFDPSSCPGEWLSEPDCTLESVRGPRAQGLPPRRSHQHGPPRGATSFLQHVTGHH
# panel of 442 kinases [7] = target: T7, panel of 442 kinases (Homo sapiens, UniProt Q9Y2U5); settings: kinase MAP3K2; for remaining activity at 1 µM: read-out: % of control at 1 µM
# T7 construct: purchased Ambit Biosciences (scanMAXX KINOMEscan)
# T7 sequence (Q9Y2U5 1-619): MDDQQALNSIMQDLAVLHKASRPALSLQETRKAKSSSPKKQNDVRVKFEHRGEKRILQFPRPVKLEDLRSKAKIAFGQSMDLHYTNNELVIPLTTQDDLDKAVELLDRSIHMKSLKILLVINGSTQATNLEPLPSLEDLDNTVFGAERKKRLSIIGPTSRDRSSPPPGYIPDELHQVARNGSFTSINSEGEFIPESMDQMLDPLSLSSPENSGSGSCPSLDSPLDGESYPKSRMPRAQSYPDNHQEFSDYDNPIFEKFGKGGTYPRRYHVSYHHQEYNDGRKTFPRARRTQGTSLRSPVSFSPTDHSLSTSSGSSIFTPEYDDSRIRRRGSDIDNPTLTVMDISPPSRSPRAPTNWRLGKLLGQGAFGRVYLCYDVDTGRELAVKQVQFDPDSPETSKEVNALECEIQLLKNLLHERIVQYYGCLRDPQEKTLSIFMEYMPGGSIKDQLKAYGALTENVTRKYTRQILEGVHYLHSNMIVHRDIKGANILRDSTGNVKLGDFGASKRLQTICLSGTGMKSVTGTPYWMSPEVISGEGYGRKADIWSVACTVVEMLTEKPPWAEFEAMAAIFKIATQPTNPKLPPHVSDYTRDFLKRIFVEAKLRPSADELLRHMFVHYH
# panel of 442 kinases [8] = target: T8, panel of 442 kinases (Homo sapiens, UniProt Q9Y463); settings: DYRK1B; for remaining activity at 1 µM: read-out: % of control at 1 µM
# T8 construct: purchased Ambit Biosciences (scanMAXX KINOMEscan)
# [9] = 10 µM, read-out: % of control at 10 µM
# T2 sequence (P45983 whole entry): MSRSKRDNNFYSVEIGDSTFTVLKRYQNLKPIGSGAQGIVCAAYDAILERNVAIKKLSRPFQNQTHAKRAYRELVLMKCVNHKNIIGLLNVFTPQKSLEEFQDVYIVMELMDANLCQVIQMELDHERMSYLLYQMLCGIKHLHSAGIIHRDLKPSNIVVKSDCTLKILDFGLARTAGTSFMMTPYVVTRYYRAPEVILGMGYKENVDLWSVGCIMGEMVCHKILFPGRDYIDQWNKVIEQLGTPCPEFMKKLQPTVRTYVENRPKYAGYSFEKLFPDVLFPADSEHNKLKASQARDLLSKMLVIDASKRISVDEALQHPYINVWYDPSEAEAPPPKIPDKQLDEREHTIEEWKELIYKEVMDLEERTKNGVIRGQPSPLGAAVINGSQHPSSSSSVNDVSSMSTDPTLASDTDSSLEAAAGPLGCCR
# T4 sequence (Q13554 whole entry): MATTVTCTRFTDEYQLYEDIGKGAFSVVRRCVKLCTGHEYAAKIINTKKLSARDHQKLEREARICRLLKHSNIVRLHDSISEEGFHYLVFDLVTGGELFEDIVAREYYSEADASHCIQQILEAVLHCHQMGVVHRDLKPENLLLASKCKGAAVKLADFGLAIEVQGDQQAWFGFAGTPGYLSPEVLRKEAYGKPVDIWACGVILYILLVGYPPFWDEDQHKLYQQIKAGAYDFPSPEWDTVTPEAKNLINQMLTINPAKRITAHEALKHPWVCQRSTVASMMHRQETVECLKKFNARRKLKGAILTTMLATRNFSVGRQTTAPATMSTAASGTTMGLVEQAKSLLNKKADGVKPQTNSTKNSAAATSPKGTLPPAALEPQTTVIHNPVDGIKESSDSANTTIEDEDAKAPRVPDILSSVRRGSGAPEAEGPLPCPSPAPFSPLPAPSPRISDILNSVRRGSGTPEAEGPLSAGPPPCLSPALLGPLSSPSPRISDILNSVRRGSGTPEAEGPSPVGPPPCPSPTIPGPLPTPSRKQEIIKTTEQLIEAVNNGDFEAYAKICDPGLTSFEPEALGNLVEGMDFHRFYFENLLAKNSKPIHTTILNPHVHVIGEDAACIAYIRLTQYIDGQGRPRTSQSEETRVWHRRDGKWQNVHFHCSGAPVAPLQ
# T8 sequence (Q9Y463 whole entry): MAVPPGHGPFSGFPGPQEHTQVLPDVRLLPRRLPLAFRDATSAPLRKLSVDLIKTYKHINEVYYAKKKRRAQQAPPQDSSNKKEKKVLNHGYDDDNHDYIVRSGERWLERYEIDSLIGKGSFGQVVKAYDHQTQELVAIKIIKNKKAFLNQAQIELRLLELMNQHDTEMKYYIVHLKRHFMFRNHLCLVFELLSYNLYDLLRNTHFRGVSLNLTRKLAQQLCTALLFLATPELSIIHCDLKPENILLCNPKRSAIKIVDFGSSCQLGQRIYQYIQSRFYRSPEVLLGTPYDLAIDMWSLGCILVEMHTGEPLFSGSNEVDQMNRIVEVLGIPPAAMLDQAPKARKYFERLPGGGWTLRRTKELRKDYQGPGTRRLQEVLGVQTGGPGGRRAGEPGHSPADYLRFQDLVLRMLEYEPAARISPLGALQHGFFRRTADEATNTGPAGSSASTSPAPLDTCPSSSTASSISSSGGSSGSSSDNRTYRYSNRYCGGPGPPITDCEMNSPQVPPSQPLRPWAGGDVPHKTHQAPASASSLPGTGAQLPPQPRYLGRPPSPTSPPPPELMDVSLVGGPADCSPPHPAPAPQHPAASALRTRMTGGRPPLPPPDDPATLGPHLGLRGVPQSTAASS
# T5 sequence (Q5S007 whole entry): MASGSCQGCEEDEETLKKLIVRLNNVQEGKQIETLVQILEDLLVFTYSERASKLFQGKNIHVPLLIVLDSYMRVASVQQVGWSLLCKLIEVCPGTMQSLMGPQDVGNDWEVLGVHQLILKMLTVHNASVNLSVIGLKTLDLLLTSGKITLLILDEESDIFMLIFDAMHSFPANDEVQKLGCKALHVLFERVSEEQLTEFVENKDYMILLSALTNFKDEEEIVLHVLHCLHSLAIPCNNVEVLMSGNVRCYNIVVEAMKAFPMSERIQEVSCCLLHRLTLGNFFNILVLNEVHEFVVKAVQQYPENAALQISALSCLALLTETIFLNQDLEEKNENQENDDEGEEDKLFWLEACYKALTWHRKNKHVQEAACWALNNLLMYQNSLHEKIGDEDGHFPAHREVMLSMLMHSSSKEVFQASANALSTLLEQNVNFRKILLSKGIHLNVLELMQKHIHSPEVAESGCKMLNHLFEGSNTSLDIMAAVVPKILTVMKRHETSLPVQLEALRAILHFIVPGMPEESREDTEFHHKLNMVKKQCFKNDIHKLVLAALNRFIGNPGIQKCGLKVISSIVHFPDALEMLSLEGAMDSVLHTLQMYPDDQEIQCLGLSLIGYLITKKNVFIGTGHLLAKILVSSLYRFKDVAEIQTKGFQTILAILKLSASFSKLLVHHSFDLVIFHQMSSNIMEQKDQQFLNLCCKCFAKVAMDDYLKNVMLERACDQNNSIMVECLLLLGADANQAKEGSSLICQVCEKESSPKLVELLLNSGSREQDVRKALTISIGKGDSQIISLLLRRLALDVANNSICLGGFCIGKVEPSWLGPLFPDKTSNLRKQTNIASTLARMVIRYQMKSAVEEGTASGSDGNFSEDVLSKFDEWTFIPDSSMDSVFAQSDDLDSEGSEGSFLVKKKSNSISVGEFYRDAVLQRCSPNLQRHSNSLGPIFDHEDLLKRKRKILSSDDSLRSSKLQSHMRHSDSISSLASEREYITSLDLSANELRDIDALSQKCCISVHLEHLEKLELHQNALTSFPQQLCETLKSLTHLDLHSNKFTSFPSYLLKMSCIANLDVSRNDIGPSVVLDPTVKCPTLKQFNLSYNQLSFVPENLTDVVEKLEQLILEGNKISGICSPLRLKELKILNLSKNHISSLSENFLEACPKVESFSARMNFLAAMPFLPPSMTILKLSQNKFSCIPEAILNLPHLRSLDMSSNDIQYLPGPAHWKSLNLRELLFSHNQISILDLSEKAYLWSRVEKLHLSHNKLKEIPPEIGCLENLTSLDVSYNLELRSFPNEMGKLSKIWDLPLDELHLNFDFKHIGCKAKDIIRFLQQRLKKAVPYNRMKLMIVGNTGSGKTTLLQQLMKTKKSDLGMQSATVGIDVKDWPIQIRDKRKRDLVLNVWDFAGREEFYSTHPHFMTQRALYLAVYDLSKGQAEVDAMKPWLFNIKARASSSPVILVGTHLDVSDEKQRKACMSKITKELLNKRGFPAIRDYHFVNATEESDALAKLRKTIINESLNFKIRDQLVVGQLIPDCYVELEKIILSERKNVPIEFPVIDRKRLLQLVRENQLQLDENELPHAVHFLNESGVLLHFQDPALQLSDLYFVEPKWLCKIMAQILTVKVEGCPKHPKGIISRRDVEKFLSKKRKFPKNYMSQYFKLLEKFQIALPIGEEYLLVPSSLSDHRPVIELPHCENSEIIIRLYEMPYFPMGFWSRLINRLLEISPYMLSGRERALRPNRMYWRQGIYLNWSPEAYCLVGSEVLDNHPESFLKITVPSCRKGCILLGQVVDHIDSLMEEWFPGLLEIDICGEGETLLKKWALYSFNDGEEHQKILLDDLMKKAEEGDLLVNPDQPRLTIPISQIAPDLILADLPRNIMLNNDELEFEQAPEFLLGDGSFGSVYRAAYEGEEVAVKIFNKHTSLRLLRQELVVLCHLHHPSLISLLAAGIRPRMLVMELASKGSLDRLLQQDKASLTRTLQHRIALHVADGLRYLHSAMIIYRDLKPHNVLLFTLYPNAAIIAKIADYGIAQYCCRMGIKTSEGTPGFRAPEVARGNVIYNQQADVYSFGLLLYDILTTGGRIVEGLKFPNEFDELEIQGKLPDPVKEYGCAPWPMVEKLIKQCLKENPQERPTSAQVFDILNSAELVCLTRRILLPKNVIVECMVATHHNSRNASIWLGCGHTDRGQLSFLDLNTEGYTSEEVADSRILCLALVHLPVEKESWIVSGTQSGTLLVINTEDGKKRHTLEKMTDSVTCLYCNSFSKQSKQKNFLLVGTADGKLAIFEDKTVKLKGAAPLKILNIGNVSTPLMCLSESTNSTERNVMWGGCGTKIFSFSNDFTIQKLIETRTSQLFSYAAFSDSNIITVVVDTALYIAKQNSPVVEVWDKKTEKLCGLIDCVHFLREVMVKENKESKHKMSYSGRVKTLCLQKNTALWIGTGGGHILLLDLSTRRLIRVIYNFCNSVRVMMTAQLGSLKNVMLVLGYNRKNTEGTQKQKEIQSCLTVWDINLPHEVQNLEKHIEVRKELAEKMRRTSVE
SMILES,remaining activity at 1 µM (panel of 442 kinases [1]) [%],remaining activity at 10 µM (panel of 442 kinases [1]; [9]) [%],remaining activity at 1 µM (panel of 442 kinases [2]) [%],remaining activity at 10 µM (panel of 442 kinases [2]; [9]) [%],remaining activity at 1 µM (panel of 442 kinases [3]) [%],remaining activity at 10 µM (panel of 442 kinases [3]; [9]) [%],remaining activity at 1 µM (panel of 442 kinases [4]) [%],remaining activity at 10 µM (panel of 442 kinases [4]; [9]) [%],remaining activity at 1 µM (panel of 442 kinases [5]) [%],remaining activity at 10 µM (panel of 442 kinases [5]; [9]) [%],remaining activity at 1 µM (panel of 442 kinases [6]) [%],remaining activity at 10 µM (panel of 442 kinases [6]; [9]) [%],remaining activity at 1 µM (panel of 442 kinases [7]) [%],remaining activity at 10 µM (panel of 442 kinases [7]; [9]) [%],remaining activity at 1 µM (panel of 442 kinases [8]) [%],remaining activity at 10 µM (panel of 442 kinases [8]; [9]) [%]
Nc1cc(C(F)(F)F)c(-c2cc(N3CCOCC3)nc(N3CCOCC3)n2)cn1 [Buparlisib],100,100,98,100,99,100,80,79,80,100,97,100,100,100,86,100
"Cn1c(=O)n(-c2ccc(C(C)(C)C#N)cc2)c2c3cc(-c4cnc5ccccc5c4)ccc3ncc21 [Dactolisib, 2-methyl-2-[4-(3-methyl-2-oxo-8-quinolin-3-yl-2,3-dihydroimidazo[4,5-c]quinolin-1-yl)-phenyl] propionitrile]",92,–,84,–,78,–,87,–,52,–,87,–,72,–,93,–
COc1ncc(-c2ccc3nccc(-c4ccnnc4)c3c2)cc1NS(=O)(=O)c1ccc(F)cc1F [Omipalisib],100,–,100,–,93,–,100,–,96,–,98,–,100,–,88,–
"FC(F)c1nc2ccccc2n1-c1nc(N2CCOCC2)nc(N2CCOCC2)n1 [ZSTK474, 2-(difluoromethyl)-1-[4,6-di(4-morpholinyl)-1,3,5-triazin-2-yl]-1H-benzimidazole]",100,–,86,–,73,–,100,–,100,–,77,–,74,–,97,–
